Assays:
human adipocytes = assay: Assay of the free fatty acids (lipolytic activity) in isolated human adipocytes in suspension; format: cell-based; settings: incubation concentration 0.0019 wt % DE
From the text: Hydrolysis of the triglycerides to nonesterified fatty acids and glycerol is called lipolysis. Triglycerides are stored in the adipocytes and constitute the fat reserve. For this reserve to diminish, which is the desired aim when slimming products are used, the triglycerides should be hydrolysed in the form of fatty acids, which in their case can be removed from the cell. Hydrolysis of the triglycerides calls into play a hormone-dependent lipase which must be phosphorylated in order to be active. The phosphorylation step uses a kinase and cAMP. An increase in the cAMP content of the adipocytes is necessary for promoting the activity of the lipase and therefore the lipolysis. The method described consists in incubating the products in the presence of human adipocytes in suspension, followed by […].
The test is carried out using human adipocytes isolated and prepared as a cellular suspension. The adipocytes are isolated from the subcutaneous abdominal adipose tissue recovered during plastic surgery operations (abdominal plastic surgery operations) performed on women. The cells are isolated from fresh tissue. The adipose tissue is isolated and dissociated by the action of a collagenase (SIGMA™, 1 mg/ml, 30 minutes at 37° C., gentle stirring). Collagenase digests the connective tissue present in the adipose tissue. After digestion, the cells are filtered and washed in an appropriate culture medium containing MEM medium free of phenol red, free of glutamine (SIGMA)+2.2 mg/ml of sodium bicarbonate (GIBCO)+50 IU of penicillin (BIOWHITTAKER™)+50 μg/ml of streptomycin (BIOWHITTAKER™)+1% (v/v) of L-glutamine (BIOWHITTAKER™)+0.5% of lipid-free serum albumin (SIGMA™). The adipocyte suspension is used immediately after its preparation.
The test products are diluted in the adipocyte culture medium. They are incubated with the cells in suspension for two hours at 37° C. (250 μl of product+250 μl of adipocyte suspension).
After the incubation, the cell lysis is checked visually by the presence of a lipid layer at the surface of the cellular suspension. The supernatant media are collected. The free fatty acids are assayed by spectrophotometry using a commercial kit (NEFA™ C kit, WAKO), with reference to a fatty acid calibration series. The lypolytic activity of the products is evaluated relative to a control group incubated in the presence of adipocytes and in the absence of product. […] Five assays are performed for each of the test products which are as follows:
This assay is repeated by carrying out new assays at different concentrations.

human pancreatic lipase = biological target: T1, human pancreatic lipase (Homo sapiens, UniProt P16233); assay: Measurement of the activity of lipase (LIPASE-PS kit, absorbance 550 nm); format: biochemical; settings: relative to the control, 8 minutes at 37° C.
T1 construct: purchased SIGMA LIPASE-PS kit
T1 sequence (P16233 17-465): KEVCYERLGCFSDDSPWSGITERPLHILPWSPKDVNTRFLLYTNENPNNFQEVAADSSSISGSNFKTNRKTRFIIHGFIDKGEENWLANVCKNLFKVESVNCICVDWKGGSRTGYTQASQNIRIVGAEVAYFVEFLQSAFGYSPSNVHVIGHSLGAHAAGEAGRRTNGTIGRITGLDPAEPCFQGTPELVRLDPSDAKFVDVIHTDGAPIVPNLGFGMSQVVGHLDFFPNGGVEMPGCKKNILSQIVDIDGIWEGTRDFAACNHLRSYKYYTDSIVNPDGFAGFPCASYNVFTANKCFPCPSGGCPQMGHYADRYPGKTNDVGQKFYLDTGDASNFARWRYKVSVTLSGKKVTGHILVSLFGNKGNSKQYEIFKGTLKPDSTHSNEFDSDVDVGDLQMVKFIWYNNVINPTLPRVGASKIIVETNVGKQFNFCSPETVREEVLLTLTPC
T1 sequence (P02703 23-112 partner): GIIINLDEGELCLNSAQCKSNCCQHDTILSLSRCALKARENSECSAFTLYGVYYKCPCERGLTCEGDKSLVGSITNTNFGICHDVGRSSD
Protocol: Lipase is an enzyme which degrades triglycerides to fatty acids and glycerol according to the following reaction scheme: [drawing 5]
Inside the adipocytes, the free fatty acids can thus be removed from storage. […] It is based on an enzymatic test, using a purified enzyme.
A human pancreatic lipase (SIGMA, LIPASE-PS™ kit) is incubated in the presence of a diglyceride and a reaction system to produce a coloured quinone diimine which can be assayed by spectrophotometry (550 nm). The measurement of the absorbance at 550 nm is directly proportional to the activity of the lipase.
All the […] are provided in the LIPASE-PS™ kit (SIGMA) . The product is incubated with the reaction mixture for 8 minutes at 37° C.
The reaction system used is composed of:
The results are presented in the following table as a percentage activation of the lipase relative to the control.

[1] = biological target: T2, hyaluronidase (SIGMA), purified from bovine testicles (Bos taurus, UniProt Q2YDK3); assay: Measurement of the activity of hyaluronidase (purified enzyme); format: biochemical; settings: hyaluronidase test, 60 minutes at 37° C.
T2 construct: purified from bovine testicles; purchased SIGMA; host or cells: bovine testicles
T2 sequence (Q2YDK3 36-553): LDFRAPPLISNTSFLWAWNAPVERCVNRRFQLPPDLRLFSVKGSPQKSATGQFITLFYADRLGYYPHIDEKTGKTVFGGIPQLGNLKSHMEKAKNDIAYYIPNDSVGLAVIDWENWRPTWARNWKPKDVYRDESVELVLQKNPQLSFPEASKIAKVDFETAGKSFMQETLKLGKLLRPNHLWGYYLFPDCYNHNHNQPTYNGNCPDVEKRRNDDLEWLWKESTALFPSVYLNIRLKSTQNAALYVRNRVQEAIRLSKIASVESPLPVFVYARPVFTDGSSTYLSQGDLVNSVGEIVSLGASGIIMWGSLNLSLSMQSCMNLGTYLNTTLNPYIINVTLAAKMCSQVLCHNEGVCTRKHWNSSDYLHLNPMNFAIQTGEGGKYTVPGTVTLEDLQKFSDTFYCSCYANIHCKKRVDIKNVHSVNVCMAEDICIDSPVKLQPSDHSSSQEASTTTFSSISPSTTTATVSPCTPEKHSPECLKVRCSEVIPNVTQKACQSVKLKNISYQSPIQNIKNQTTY
Protocol: The objective of this test is to measure the activity of hyaluronidase. This enzyme, which is naturally found in the skin, degrades hyaluronic acid. The study is carried out in vitro on the purified enzyme.
The hyaluronidase (SIGMA), purified from bovine testicles, is incubated at 0.01 U/ml in the presence of hyaluronic acid at 0.02 mg/ml, with or without test product. The incubation is carried out for 60 minutes at 37° C.
Evaluation of the effects: After the incubation, the hyaluronic acid not degraded by the enzyme is precipitated by a 24 mM sodium acetate/79. mM acetic acid mixture (10 minutes, room temperature). The precipitate is measured by spectrophotometry at 590 nm.
The effect of the test products is compared to that observed in the presence of dipotassium glycyrrhizinate, a reference hyaluronidase inhibitor.

[2] = incubation concentration 0.01 % DE

## Cn1c(=O)c2c(ncn2C)n(C)c1=O [Caffeine, 1,3,7-trimethyl-xanthine]
Human adipocytes; 2 h at 37° C., mean of five assays
  Free fatty acid concentration: 15.10 ± 4.11 µM
Human adipocytes; control = 100
  Lipolytic activity (compared with the control = 100): 131
Human pancreatic lipase; [2]
  Percentage activation of the lipase: 0%
Human pancreatic lipase; incubation concentration 0.1 % DE
  Percentage activation of the lipase: 10%
[1]; incubation concentration 0.001 % DE
  Percentage inhibition of hyaluronidase activity: 15%
[1]; [2]
  Percentage inhibition of hyaluronidase activity: 20%

Reference: patent US20040166079A1, “N-Lauroyl amino acid composition for slimming the human body” (priority 2003, published 2004)
